This is an account of results in ChEMBL document CHEMBL3091280, “Synthesis and Cytotoxicity of Semisynthetic Withalongolide A Analogues” (ACS Med Chem Lett, 2013).

In one assay the test system is MDA-MB-231. Description: Cytotoxicity against human MDA-MB-231 cells after 72 hrs by MTS assay. To be noted: MDA-MB-231, 72 h. Format: functional, cell-based. Background: Tetrazolium assays rely on reduction of a dye to a coloured formazan, in cell work by metabolically active cells.
Assay [1] is described as follows: Cytotoxicity against human JMAR cells after 72 hrs by MTS assay. Format: functional, cell-based.
The nature of assay [2]: Cytotoxicity against human DRO 81-1 cells after 72 hrs by MTS assay. Type of assay: functional, cell-based.
A further assay has as its system MRC5. Description: Cytotoxicity against human MRC5 cells after 72 hrs by MTS assay. Type of assay: cell-based. To be noted: MRC5, 72 h.
The next assay concerns SK-MEL-28. Description: Cytotoxicity against human SK-MEL-28 cells after 72 hrs by MTS assay. Type of assay: functional, cell-based. The settings on record: SK-MEL-28, 72 h.

In the case of `CC1=C(CO)C(=O)O[C@@H]([C@@H](C)[C@H]2CC[C@H]3[C@@H]4C[C@H]5O[C@]56[C@@H](O)C=CC(=O)[C@]6(CO)[C@H]4CC[C@]23C)C1`, the IC50 with MDA-MB-231 was 1.5 µM; in assay [1], 3.1 µM; in assay [2], 1.7 µM; in the assay on MRC5 it was 5.3 µM; with SK-MEL-28 it was 1.6 µM.

Consider `CC(=O)OCC1=C(C)C[C@H]([C@@H](C)[C@H]2CC[C@H]3[C@@H]4C[C@H]5O[C@]56[C@@H](OC(C)=O)C=CC(=O)[C@]6(COC(C)=O)[C@H]4CC[C@]23C)OC1=O`, for which the IC50 in the assay with MDA-MB-231 amounted to 0.655 µM; in assay [1], 0.655 µM; in assay [2], 0.11 µM; with MRC5, 0.31 µM; with SK-MEL-28, 0.11 µM.

With `CC(=O)OCC1=C(C)C[C@H]([C@@H](C)[C@H]2CC[C@H]3[C@@H]4C[C@H]5O[C@]56[C@@H](OC(C)=O)C=CC(=O)[C@]6(CO)[C@H]4CC[C@]23C)OC1=O`, the IC50 was determined as 0.635 µM in the assay with MDA-MB-231; 0.6 µM in assay [1]; 0.058 µM in assay [2]; 0.295 µM in the assay with MRC5; 0.17 µM with SK-MEL-28.

For `CC(=O)OC[C@]12C(=O)C=C[C@H](OC(=O)c3ccc(Cl)cc3)[C@]13O[C@@H]3C[C@H]1[C@@H]3CC[C@H]([C@H](C)[C@H]4CC(C)=C(COC(=O)c5ccc(Cl)cc5)C(=O)O4)[C@@]3(C)CC[C@@H]12`, the IC50 (in the assay on MDA-MB-231; in assay [1]; in assay [2]; in the assay on MRC5; with SK-MEL-28) was at least 10 µM in each case.

Take `CC(=O)OCC1=C(C)C[C@H]([C@@H](C)[C@H]2CC[C@H]3[C@@H]4C[C@H]5O[C@]56[C@@H]5C=CC(=O)[C@]6(COC(=O)CC/C=C/CCC(=O)O5)[C@H]4CC[C@]23C)OC1=O`: the IC50 was 0.245 µM with MDA-MB-231; 0.965 µM in assay [1]; 0.225 µM in assay [2]; 0.36 µM in the assay on MRC5; 0.205 µM in the assay on SK-MEL-28.

On to `C=CCCC(=O)OC[C@]12C(=O)C=C[C@H](OC(=O)CCC=C)[C@]13O[C@@H]3C[C@H]1[C@@H]3CC[C@H]([C@H](C)[C@H]4CC(C)=C(COC(C)=O)C(=O)O4)[C@@]3(C)CC[C@@H]12`, for which the IC50 was determined as 0.625 µM in the assay with MDA-MB-231; 1.44 µM in assay [1]; 0.58 µM in assay [2]; 0.865 µM in the assay on MRC5; 0.47 µM in the assay on SK-MEL-28.

As to `CC(=O)OCC1=C(C)C[C@H]([C@@H](C)[C@H]2CC[C@H]3[C@@H]4C[C@H]5O[C@]56[C@@H](OC(C)=O)C=C(I)C(=O)[C@]6(COC(C)=O)[C@H]4CC[C@]23C)OC1=O`, the IC50 was found to be 0.21 µM in the assay with MDA-MB-231; 0.83 µM in assay [1]; 0.115 µM in assay [2]; 0.475 µM with MRC5; 0.275 µM in the assay with SK-MEL-28.

With `CC1=C(CO)C(=O)O[C@@H]([C@@H](C)[C@H]2CC[C@H]3[C@@H]4C[C@H]5O[C@]56[C@@H](O)C=C(I)C(=O)[C@]6(CO)[C@H]4CC[C@]23C)C1`, the IC50 in the assay with MDA-MB-231 was over 10 µM; in assay [1], over 10 µM; in assay [2], 5.25 µM; in the assay with MRC5, 9.1 µM; in the assay with SK-MEL-28, 9.11 µM.

On to `CC(=O)OCC1=C(C)C[C@H]([C@@H](C)[C@H]2CC[C@H]3[C@@H]4C[C@@H](OC(C)=O)C5=CC=CC(=O)[C@]5(COC(C)=O)[C@H]4CC[C@]23C)OC1=O`, for which the IC50 (in the assay on MDA-MB-231; in assay [1]; in assay [2]; with MRC5; with SK-MEL-28) was at least 10 µM each time.

With `CC(=O)OCC1=C(C)C[C@H]([C@@H](C)[C@H]2CC[C@H]3[C@@H]4C[C@@H](O)[C@@]5(Cl)CC=CC(=O)[C@]5(COC(C)=O)[C@H]4CC[C@]23C)OC1=O`, the IC50 turned out to be 0.8 µM in the assay on MDA-MB-231; 2.16 µM in assay [1]; 1.35 µM in assay [2]; 3.15 µM in the assay with MRC5; 1.17 µM in the assay with SK-MEL-28.

Turning to `CC(=O)OCC1=C(C)C[C@H]([C@@H](C)[C@H]2CC[C@H]3[C@@H]4C[C@@H](O)C5=CC=CC(=O)[C@]5(COC(C)=O)[C@H]4CC[C@]23C)OC1=O`, the IC50 (with MDA-MB-231; in assay [1]; in assay [2]; in the assay with MRC5; with SK-MEL-28) was at least 10 µM throughout.

For `CC(=O)OCC1=C(C)C[C@H]([C@@H](C)[C@H]2CC[C@H]3[C@@H]4C[C@H]5O[C@]56CC=CC(=O)[C@]6(COC(C)=O)[C@H]4CC[C@]23C)OC1=O`, the IC50 with MDA-MB-231 is 0.79 µM; in assay [1], 1.22 µM; in assay [2], 1.1 µM; with MRC5, 2.05 µM; in the assay with SK-MEL-28 it was 0.71 µM.

Regarding `CC(=O)OCC1=C(C)C[C@H]([C@@H](C)[C@H]2CC[C@H]3[C@@H]4C[C@H]5O[C@]56[C@@H](OC(=O)N(C)C)C=CC(=O)[C@]6(COC(C)=O)[C@H]4CC[C@]23C)OC1=O`, the IC50 amounted to 0.175 µM in the assay with MDA-MB-231; 0.97 µM in assay [1]; 0.0865 µM in assay [2]; 0.51 µM in the assay on MRC5; 0.205 µM in the assay on SK-MEL-28.

For `CC1=C(CO)C(=O)O[C@@H]([C@@H](C)[C@H]2CC[C@H]3[C@@H]4C[C@H]5O[C@]56[C@@H](OC(=O)N(C)C)C=CC(=O)[C@]6(CO)[C@H]4CC[C@]23C)C1`, the IC50 in the assay on MDA-MB-231 was determined as 0.61 µM; in assay [1], 2.09 µM; in assay [2] it was 0.585 µM; in the assay with MRC5 it was 1.75 µM; in the assay on SK-MEL-28, 0.515 µM.

For `CC1=C(COC(=O)c2ccc(Cl)cc2)C(=O)O[C@@H]([C@@H](C)[C@H]2CC[C@H]3[C@@H]4C[C@H]5O[C@]56[C@@H](OC(=O)c5ccc(Cl)cc5)C=CC(=O)[C@]6(COC(=O)c5ccc(Cl)cc5)[C@H]4CC[C@]23C)C1`, the IC50 (with MDA-MB-231; in assay [1]; in assay [2]; with MRC5; in the assay with SK-MEL-28) was at least 10 µM throughout.

With `CC1=C(COC(=O)c2ccc(Cl)cc2)C(=O)O[C@@H]([C@@H](C)[C@H]2CC[C@H]3[C@@H]4C[C@H]5O[C@]56[C@@H](OC(=O)c5ccc(Cl)cc5)C=CC(=O)[C@]6(CO)[C@H]4CC[C@]23C)C1`, the IC50 (in the assay on MDA-MB-231; in assay [1]; in assay [2]; in the assay on MRC5; in the assay with SK-MEL-28) was at least 10 µM in each case.

Turning to `CC1=C(COC(=O)c2ccc(Cl)cc2)C(=O)O[C@@H]([C@@H](C)[C@H]2CC[C@H]3[C@@H]4C[C@H]5O[C@]56[C@@H](O)C=CC(=O)[C@]6(COC(=O)c5ccc(Cl)cc5)[C@H]4CC[C@]23C)C1`, the IC50 was determined as 2.62 µM with MDA-MB-231; 4.64 µM in assay [1]; 1.9 µM in assay [2]; 2.35 µM in the assay on MRC5; 1.11 µM in the assay with SK-MEL-28.

Consider `CC1=C(CO)C(=O)O[C@@H]([C@@H](C)[C@H]2CC[C@H]3[C@@H]4C[C@H]5O[C@]56[C@@H](OC(=O)c5ccc(Cl)cc5)C=CC(=O)[C@]6(CO)[C@H]4CC[C@]23C)C1`, for which the IC50 with MDA-MB-231 amounted to 1.4 µM; in assay [1], 1.72 µM; in assay [2], 1.85 µM; in the assay on MRC5 it was 2.55 µM; in the assay on SK-MEL-28, 2.25 µM.

For the compound `CCC(=O)OCC1=C(C)C[C@H]([C@@H](C)[C@H]2CC[C@H]3[C@@H]4C[C@H]5O[C@]56[C@@H](OC(=O)CC)C=CC(=O)[C@]6(COC(=O)CC)[C@H]4CC[C@]23C)OC1=O`, the IC50 in the assay on MDA-MB-231 came to 0.365 µM; in assay [1] it was 1 µM; in assay [2] it was 0.13 µM; with MRC5, 0.615 µM; with SK-MEL-28, 0.285 µM.

Consider `CC(=O)OCC1=C(C)C[C@H]([C@@H](C)[C@H]2CC[C@H]3[C@@H]4C[C@H]5O[C@]56[C@@H](O)C=CC(=O)[C@]6(COC(C)=O)[C@H]4CC[C@]23C)OC1=O`, for which the IC50 in the assay on MDA-MB-231 amounted to 0.205 µM; in assay [1], 0.515 µM; in assay [2], 0.155 µM; in the assay on MRC5, 0.49 µM; in the assay with SK-MEL-28 it was 0.23 µM.

On to `CC(=O)O[C@H]1C=CC(=O)[C@]2(CO)[C@H]3CC[C@]4(C)[C@@H]([C@H](C)[C@H]5CC(C)=C(CO)C(=O)O5)CC[C@H]4[C@@H]3C[C@H]3O[C@]132`, for which the IC50 in the assay on MDA-MB-231 stood at 0.89 µM; in assay [1] it was 2.48 µM; in assay [2], 0.57 µM; in the assay with MRC5, 1.2 µM; in the assay on SK-MEL-28, 1.22 µM.

On to `CC(=O)OC[C@]12C(=O)C=C[C@H](O)[C@]13O[C@@H]3C[C@H]1[C@@H]3CC[C@H]([C@H](C)[C@H]4CC(C)=C(CO)C(=O)O4)[C@@]3(C)CC[C@@H]12`, for which the IC50 with MDA-MB-231 was 1.15 µM; in assay [1], 3.06 µM; in assay [2] it was 0.78 µM; in the assay on MRC5, 1.8 µM; in the assay on SK-MEL-28 it was 1.23 µM.

As to `CC(=O)OCC1=C(C)C[C@H]([C@@H](C)[C@H]2CC[C@H]3[C@@H]4C[C@H]5O[C@]56[C@@H](O)C=CC(=O)[C@]6(CO)[C@H]4CC[C@]23C)OC1=O`, the IC50 was 0.415 µM in the assay with MDA-MB-231; 1.22 µM in assay [1]; 1.05 µM in assay [2]; 2.3 µM with MRC5; 0.705 µM in the assay on SK-MEL-28.

As usually defined, the IC50 is the point on the concentration scale where inhibition reaches its midpoint. Low readings indicate higher potency, high ones lower potency.
